Test results published in patent US10457672B2, “γ-diketones as Wnt/β-catenin signaling pathway activators” (Samumed, LLC, priority 2013, dated 2019).
pEC50: −log10 of the molar value.

Tested on: Wnt/β-catenin signaling pathway (Wnt-responsive SP5 promoter luciferase reporter in SW480 cells)
Assay: Wnt reporter (SP5 promoter-firefly luciferase) activation assay in SW480 cells
Format: cell-based
Settings: Homo sapiens; SW480 colon cancer cells with SP5 promoter luciferase reporter; 24 h after compound addition; normalized to DMSO; concentration at half maximal activation
Protocol: Compounds that enhance the Wnt activity, or Activators, were assayed as follows. Reporter cell lines were generated by stably transducing cells of colon cancer cell lines (with a lentiviral construct that included a Wnt-responsive promoter driving expression of the firefly luciferase gene).
Lentiviral constructs were made in which the SP5 promoter, a promoter having eight TCF/LEF binding sites derived from the SP5 promoter, was linked upstream of the firefly luciferase gene. The lentiviral constructs also included a hygromycin resistance gene as a selectable marker. The SP5 promoter construct was used to transduce SW480 cells, a colon cancer cell line having a mutated APC gene that generates a truncated APC protein, leading to de-regulated accumulation of β-catenin.
Cultured SW480 cells bearing a reporter construct were distributed at approximately 10,000 cells per well into 384- or 96-well multiwell plates. Compounds from a small molecule compound library were then added to the wells in half-log dilutions using a maximum concentration of three or ten micromolar. A series of control wells for each cell type received only buffer and compound solvent DMSO. Twenty-four hours after the addition of compound, reporter activity for luciferase was assayed, for example, by addition of the BrightGlo luminescence reagent (Promega) and the Victor3 plate reader (Perkin Elmer). Readings were normalized to DMSO only treated cells, and any activities above DMSO were considered activation. Compounds were considered activators if reporter activities were 2× fold or greater than DMSO. EC50 is the concentration at half maximal activation.

SMILES	pEC50
O=C(CCC(=O)c1cc2c(c(O)c1O)OCCO2)c1ccccc1 [Compound 4, 1-(7,8-dihydroxy-2,3-dihydrobenzo[b][1,4]dioxin-6-yl)-4-phenylbutane-1,4-dione]	< 5.00
O=C(CCC(=O)c1ccc2c(c1)OCCO2)c1cccc(C(F)(F)F)c1 [Compound 9, 1-(2,3-Dihydrobenzo[b][1,4]dioxin-6-yl)-4-(3-(trifluoromethyl)phenyl)butane-1,4-dione]	7.00
O=C(CCC(=O)c1ccc2c(c1)OCCO2)c1ccc(C(F)(F)F)cc1 [Compound 10, 1-(2,3-Dihydrobenzo[b][1,4]dioxin-6-yl)-4-(4-(trifluoromethyl)phenyl)butane-1,4-dione]	< 5.00
O=C(CCC(=O)c1ccc2c(c1)OCCO2)c1cccc(F)c1 [Compound 11, 1-(2,3-Dihydrobenzo[b][1,4]dioxin-6-yl)-4-(3-fluorophenyl)butane-1,4-dione]	7.89
COc1ccccc1C(=O)CCC(=O)c1ccc2c(c1)OCCO2 [Compound 12, 1-(2,3-Dihydrobenzo[b][1,4]dioxin-6-yl)-4-(2-methoxyphenyl)butane-1,4-dione]	8.30
COc1cccc(C(=O)CCC(=O)c2ccc3c(c2)OCCO3)c1 [Compound 13, 1-(2,3-Dihydrobenzo[b][1,4]dioxin-6-yl)-4-(3-methoxyphenyl)butane-1,4-dione]	6.72
O=C(CCC(=O)c1ccc2c(c1)OCCO2)c1cccnc1 [Compound 14, 1-(2,3-dihydrobenzo[b][1,4]dioxin-6-yl)-4-(pyridin-3-yl)butane-1,4-dione]	6.51
O=C(CCC(=O)c1ccc2c(c1)OCCO2)c1ccncc1 [Compound 15, 1-(2,3-Dihydrobenzo[b][1,4]dioxin-6-yl)-4-(pyridin-4-yl)butane-1,4-dione]	7.05
O=C(CCC(=O)c1ccccc1C(F)(F)F)c1ccc2c(c1)SCCO2 [Compound 16, 1-(2,3-Dihydrobenzo[b][1,4]oxathiin-6-yl)-4-(2-(trifluoromethyl)phenyl)butane-1,4-dione]	8.15
O=C(CCC(=O)c1ccc2c(c1)SCCO2)c1ccc(C(F)(F)F)cc1 [Compound 18, 1-(2,3-Dihydrobenzo[b][1,4]oxathiin-6-yl)-4-(4-(trifluoromethyl)phenyl)butane-1,4-dione]	< 5.00
O=C(CCC(=O)c1ccccc1F)c1ccc2c(c1)SCCO2 [Compound 19, 1-(2,3-Dihydrobenzo[b][1,4]oxathiin-6-yl)-4-(2-fluorophenyl)butane-1,4-dione]	8.52
O=C(CCC(=O)c1ccc2c(c1)SCCO2)c1ccc(F)cc1 [Compound 21, 1-(2,3-Dihydrobenzo[b][1,4]oxathiin-6-yl)-4-(4-fluorophenyl)butane-1,4-dione]	7.51
O=C(CCC(=O)c1ccc2c(c1)SCCO2)c1ccccc1 [Compound 28, 1-(2,3-Dihydrobenzo[b][1,4]oxathiin-6-yl)-4-phenylbutane-1,4-dione]	8.05
COc1ccccc1C(=O)CCC(=O)c1ccc2c(c1)OCCC2 [Compound 61, 1-(Chroman-7-yl)-4-(2-methoxyphenyl)butane-1,4-dione]	7.60
O=C(CCC(=O)c1ccccc1C(F)(F)F)c1ccc2c(c1)CCCO2 [Compound 68, 1-(Chroman-6-yl)-4-(2-(trifluoromethyl)phenyl)butane-1,4-dione]	8.22
O=C(CCC(=O)c1ccc2c(c1)CCCO2)c1cccc(C(F)(F)F)c1 [Compound 69, 1-(Chroman-6-yl)-4-(3-(trifluoromethyl)phenyl)butane-1,4-dione]	< 5.00
O=C(CCC(=O)c1ccccc1F)c1ccc2c(c1)CCCO2 [Compound 71, 1-(Chroman-6-yl)-4-(2-fluorophenyl)butane-1,4-dione]	8.60
COc1ccc(C(=O)CCC(=O)c2ccc3c(c2)CCCO3)cc1 [Compound 76, 1-(Chroman-6-yl)-4-(4-methoxyphenyl)butane-1,4-dione]	< 5.00
O=C(CCC(=O)c1ccc2c(c1)CCCO2)c1ccccc1 [Compound 80, 1-(Chroman-6-yl)-4-phenylbutane-1,4-dione]	8.00
COc1ccc(C(=O)CCC(=O)c2ccccn2)cc1OC [Compound 207, 1-(3,4-Dimethoxyphenyl)-4-(pyridin-2-yl)butane-1,4-dione]	< 5.00
COc1ccc(C(=O)CCC(=O)c2cccnc2)cc1OC [Compound 208, 1-(3,4-Dimethoxyphenyl)-4-(pyridin-3-yl)butane-1,4-dione]	< 5.00
COc1ccc(C(=O)CCC(=O)c2ccncc2)cc1OC [Compound 209, 1-(3,4-Dimethoxyphenyl)-4-(pyridin-4-yl)butane-1,4-dione]	< 5.00

SMILES	pEC50
O=C(CCC(=O)c1ccccc1C(F)(F)F)c1ccc2c(c1)OCO2 [Compound 210, 1-(Benzo[d][1,3]dioxol-5-yl)-4-(2-(trifluoromethyl)phenyl)butane-1,4-dione]	8.70
O=C(CCC(=O)c1ccccc1F)c1ccc2c(c1)OCO2 [Compound 213, 1-(Benzo[d][1,3]dioxol-5-yl)-4-(2-fluorophenyl)butane-1,4-dione]	7.74
O=C(CCC(=O)c1ccc2c(c1)OCO2)c1cccc(F)c1 [Compound 214, 1-(Benzo[d][1,3]dioxol-5-yl)-4-(3-fluorophenyl)butane-1,4-dione]	8.00
COc1ccccc1C(=O)CCC(=O)c1ccc2c(c1)OCO2 [Compound 216, 1-(Benzo[d][1,3]dioxol-5-yl)-4-(2-methoxyphenyl)butane-1,4-dione]	7.96
COc1cccc(C(=O)CCC(=O)c2ccc3c(c2)OCO3)c1 [Compound 217, 1-(Benzo[d][1,3]dioxol-5-yl)-4-(3-methoxyphenyl)butane-1,4-dione]	6.46
O=C(CCC(=O)c1ccc2c(c1)OCO2)c1ccccc1 [Compound 222, 1-(Benzo[d][1,3]dioxol-5-yl)-4-phenylbutane-1,4-dione]	8.52
O=C(CCC(=O)c1ccccn1)c1ccc2c(c1)OC(F)(F)O2 [Compound 232, 1-(2,2-Difluorobenzo[d][1,3]dioxol-5-yl)-4-(pyridin-2-yl)butane-1,4-dione]	6.87
O=C(CCC(=O)c1ccc2c(c1)OC(F)(F)O2)c1ccccc1 [Compound 235, 1-(2,2-Difluorobenzo[d][1,3]dioxol-5-yl)-4-phenylbutane-1,4-dione]	6.31
O=C(CCC(=O)c1cccc2c1OCCO2)c1ccc(C(F)(F)F)cc1 [Compound 238, 1-(2,3-Dihydrobenzo[b][1,4]dioxin-5-yl)-4-(4-(trifluoromethyl)phenyl)butane-1,4-dione]	< 5.00
O=C(CCC(=O)c1cccc2c1OCCO2)c1cccc(F)c1 [Compound 240, 1-(2,3-Dihydrobenzo[b][1,4]dioxin-5-yl)-4-(3-fluorophenyl)butane-1,4-dione]	6.17
COc1ccccc1C(=O)CCC(=O)c1cccc2c1OCCO2 [Compound 242, 1-(2,3-Dihydrobenzo[b][1,4]dioxin-5-yl)-4-(2-methoxyphenyl)butane-1,4-dione]	6.10
O=C(CCC(=O)c1cccc2c1OCCO2)c1ccccc1 [Compound 248, 1-(2,3-Dihydrobenzo[b][1,4]dioxin-5-yl)-4-phenylbutane-1,4-dione]	< 5.00
O=C(CCC(=O)c1ccccc1C(F)(F)F)c1ccc2[nH]ccc2c1 [Compound 249, 1-(1H-Indol-5-yl)-4-(2-(trifluoromethyl)phenyl)butane-1,4-dione]	8.40
O=C(CCC(=O)c1ccccc1F)c1ccc2[nH]ccc2c1 [Compound 252, 1-(2-Fluorophenyl)-4-(1H-indol-5-yl)butane-1,4-dione]	9.00
COc1ccccc1C(=O)CCC(=O)c1ccc2[nH]ccc2c1 [Compound 255, 1-(1H-Indol-5-yl)-4-(2-methoxyphenyl)butane-1,4-dione]	7.77
O=C(CCC(=O)c1ccccn1)c1ccc2[nH]ccc2c1 [Compound 258, 1-(1H-Indol-5-yl)-4-(pyridin-2-yl)butane-1,4-dione]	7.80
O=C(CCC(=O)c1ccc2[nH]ccc2c1)c1ccccc1 [Compound 261, 1-(1H-indol-5-yl)-4-phenylbutane-1,4-dione]	7.38
O=C(CCC(=O)c1ccc2[nH]cnc2c1)c1cccc(C(F)(F)F)c1 [Compound 263, 1-(1H-Benzo[d]imidazol-5-yl)-4-(3-(trifluoromethyl)phenyl)butane-1,4-dione]	< 5.00
O=C(CCC(=O)c1ccccc1F)c1ccc2[nH]cnc2c1 [Compound 265, 1-(1H-Benzo[d]imidazol-5-yl)-4-(2-fluorophenyl)butane-1,4-dione]	6.70
COc1cccc(C(=O)CCC(=O)c2ccc3[nH]cnc3c2)c1 [Compound 269, 1-(1H-Benzo[d]imidazol-5-yl)-4-(3-methoxyphenyl)butane-1,4-dione]	< 5.00
O=C(CCC(=O)c1ccc2[nH]cnc2c1)c1ccccc1 [Compound 274, 1-(1H-Benzo[d]imidazol-5-yl)-4-phenylbutane-1,4-dione]	5.17

Same assay, conditions: SW480 colon cancer cells with SP5 promoter luciferase reporter; 24 h after compound addition; normalized to DMSO; concentration at half maximal activation

SMILES	pEC50
O=C(CC(=O)c1cc(O)c2c(c1O)OCCO2)c1ccccc1 [Compound 3, 1-(5,8-dihydroxy-2,3-dihydrobenzo[b][1,4]dioxin-6-yl)-3-phenylpropane-1,3-dione]	< 5.00
